# Measurements from PubChem BioAssay (NCI).
#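 All cell lines were grown in 96-well plates and treated with compound for 48 hours. GI50 marks 50% less growth. TGI: total growth inhibition.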
# Legend:
# Test in all cases: growth of human tumour cells (NCI), 48 h
# [1] = tested on: SF-268 CNS
# [2] = tested on: RXF 393 renal
# [3] = tested on: SK-MEL-5 melanoma
# [4] = tested on: SNB-75 CNS
# [5] = tested on: OVCAR-4 ovarian
# [6] = tested on: EKVX NSCLC
# [7] = tested on: K-562 leukemia
# [8] = tested on: CCRF-CEM leukemia
# [9] = tested on: MDA-MB-231 breast
# [10] = tested on: MCF7 breast
# [11] = tested on: MOLT-4 leukemia
# [12] = tested on: SW-620 colon
# [13] = tested on: NCI-H460 lung
# [14] = tested on: MDA-MB-435
# [15] = tested on: BT-549 breast
# [16] = tested on: SF-295 CNS
# [17] = tested on: TK-10 renal
# [18] = tested on: SR leukemia
# [19] = tested on: M14 melanoma
# [20] = tested on: UACC-62 melanoma
# [21] = tested on: A549 NSCLC
# [22] = tested on: PC-3 prostate
# [23] = tested on: LOX IMVI melanoma
# [24] = tested on: OVCAR-5 ovarian
# [25] = tested on: OVCAR-8 ovarian
# [26] = tested on: HCT-116 colon
# [27] = tested on: SK-MEL-28 melanoma
# [28] = tested on: CAKI-1 renal
# [29] = tested on: RPMI-8226 leukemia
# [30] = tested on: SK-OV-3 ovarian
# [31] = tested on: MALME-3M melanoma
# [32] = tested on: NCI-H226 lung
# [33] = tested on: COLO 205 colon
# [34] = tested on: SK-MEL-2 melanoma
# [35] = tested on: HS 578T breast
# [36] = tested on: HT29 colon
# [37] = tested on: NCI-H522 lung
# [38] = tested on: UO-31 renal
# [39] = tested on: DU-145 prostate
# [40] = tested on: U251 CNS
# [41] = tested on: ACHN renal
# [42] = tested on: HCC-2998 colon
# [43] = tested on: SF-539 CNS
# [44] = tested on: HL-60(TB) leukemia
# [45] = tested on: 786-0 renal
# [46] = tested on: NCI/ADR-RES ovarian
# [47] = tested on: KM12 colon
# [48] = tested on: HCT-15 colon
# [49] = tested on: OVCAR-3 ovarian
# [50] = tested on: T-47D breast
# [51] = tested on: NCI-H23 lung
# [52] = tested on: IGROV1 ovarian
# [53] = tested on: SN12C renal
# [54] = tested on: HOP-62 NSCLC
# [55] = tested on: A498 renal
# [56] = tested on: SNB-19 CNS
# [57] = tested on: MDA-MB-468 breast
# [58] = tested on: UACC-257 melanoma
# [59] = tested on: HOP-92 NSCLC
smiles,measurement,setting,value
COc1ccc(NC(=O)N/N=C/c2c[nH]c3ccccc23)cc1,GI50,[1],5.44 µM
same,TGI,[1],> 81.4 µM
same,GI50,[2],1 µM
same,TGI,[2],11.3 µM
same,GI50,[3],0.524 µM
same,TGI,[3],5.18 µM
same,GI50,[4],1.41 µM
same,TGI,[4],12.1 µM
same,TGI,[5],> 100 µM
same,GI50,[6],3.41 µM
same,TGI,[6],> 100 µM
same,GI50,[7],0.235 µM
same,TGI,[7],> 77.1 µM
same,GI50,[8],0.379 µM
same,TGI,[8],17.6 µM
same,GI50,[9],1.01 µM
same,TGI,[9],56 µM
same,GI50,[10],0.61 µM
same,TGI,[10],> 100 µM
same,GI50,[11],0.502 µM
same,TGI,[11],50.7 µM
same,GI50,[12],0.517 µM
same,TGI,[12],> 100 µM
same,GI50,[13],0.579 µM
same,TGI,[13],26.3 µM
same,GI50,[14],0.255 µM
same,TGI,[14],1.89 µM
same,GI50,[15],0.67 µM
same,TGI,[15],> 62.8 µM
same,GI50,[16],0.458 µM
same,TGI,[16],> 32.7 µM
same,GI50,[17],7.83 µM
same,TGI,[17],98.2 µM
same,GI50,[18],0.25 µM
same,TGI,[18],> 53.4 µM
same,GI50,[19],0.34 µM
same,TGI,[19],> 100 µM
same,GI50,[20],0.364 µM
same,TGI,[20],> 47.3 µM
same,GI50,[21],0.815 µM
same,TGI,[21],> 100 µM
same,GI50,[22],1.65 µM
same,TGI,[22],> 100 µM
same,GI50,[23],0.615 µM
same,TGI,[23],> 46.6 µM
same,GI50,[24],2 µM
same,TGI,[24],> 83.7 µM
same,GI50,[25],0.801 µM
same,TGI,[25],24.6 µM
same,GI50,[26],0.389 µM
same,TGI,[26],22.6 µM
same,GI50,[27],3.31 µM
same,TGI,[27],> 100 µM
same,GI50,[28],0.678 µM
same,TGI,[28],> 100 µM
same,GI50,[29],1.09 µM
same,TGI,[29],15.3 µM
same,GI50,[30],1.98 µM
same,TGI,[30],> 100 µM
same,GI50,[31],0.547 µM
same,TGI,[31],> 100 µM
same,GI50,[32],11 µM
same,TGI,[32],> 100 µM
same,GI50,[33],0.586 µM
same,TGI,[33],3.12 µM
same,GI50,[34],0.294 µM
same,TGI,[34],28.8 µM
same,GI50,[35],1.13 µM
same,TGI,[35],> 100 µM
same,GI50,[36],0.357 µM
same,TGI,[36],5.01 µM
same,GI50,[37],0.249 µM
same,TGI,[37],0.879 µM
same,GI50,[38],1.87 µM
same,TGI,[38],> 100 µM
same,GI50,[39],2.05 µM
same,TGI,[39],> 64.1 µM
same,GI50,[40],0.431 µM
same,TGI,[40],> 89.1 µM
same,GI50,[41],1.74 µM
same,TGI,[41],> 100 µM
same,GI50,[42],1.91 µM
same,TGI,[42],24.1 µM
same,GI50,[43],0.391 µM
same,TGI,[43],2.2 µM
same,GI50,[44],0.279 µM
same,TGI,[44],1.53 µM
same,GI50,[45],1.52 µM
same,TGI,[45],28.1 µM
same,GI50,[46],0.308 µM
same,TGI,[46],1.44 µM
same,GI50,[47],0.448 µM
same,TGI,[47],> 54.5 µM
same,GI50,[48],0.384 µM
same,TGI,[48],> 52.7 µM
same,GI50,[49],0.38 µM
same,TGI,[49],2.81 µM
same,GI50,[50],1.31 µM
same,TGI,[50],> 100 µM
same,GI50,[51],2.14 µM
same,TGI,[51],> 51.7 µM
same,GI50,[52],0.646 µM
same,TGI,[52],> 100 µM
same,GI50,[53],1.03 µM
same,TGI,[53],> 56.7 µM
same,GI50,[54],0.724 µM
same,TGI,[54],> 100 µM
same,GI50,[55],> 40.7 µM
same,TGI,[55],> 88.3 µM
same,GI50,[56],1.83 µM
same,TGI,[56],> 100 µM
same,GI50,[57],0.911 µM
same,TGI,[57],4.4 µM
same,GI50,[58],> 100 µM
same,TGI,[58],> 100 µM
same,GI50,[59],2.29 µM
same,TGI,[59],38.3 µM
